Laboratory results reported in US10093683B2, “Factor XIa inhibitors” (Merck Sharp & Dohme Corp., priority 2014, dated 2018).

How the values were obtained:
human Factor XIa = human Factor XIa (Homo sapiens (Human), UniProt P03951); test: Factor XIa Assay; assay type: biochemical; settings: read-out: FXIa Ki
Outline: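 Purified human FXIa (40 pM final) hydrolysing fluorogenic Z-Gly-Pro-Arg-AFC (100 μM) in 50 mM HEPES pH 7.4, 150 mM NaCl, 5 mM CaCl2, 0.1% PEG 8000, at room temperature or 37° C. Initial velocities measured after enzyme–inhibitor equilibration; Ki from Vo/Vi versus [I], assuming competitive inhibition.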

Human plasma kallikrein = Human plasma kallikrein (Homo sapiens (Human), UniProt P03952); test: Kallikrein Assay; assay type: biochemical; settings: purified Human plasma kallikrein 0.5 nM, Acetyl-K-P-R-AFC, pH 7.4; Ki from IC50 by Cheng Prusoff
Outline: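 Purified human plasma kallikrein (0.5 nM final) with Acetyl-K-P-R-AFC substrate ([…]) in 50 mM HEPES pH 7.4, 150 mM NaCl, 5 mM CaCl2, 0.1% PEG 8000, after enzyme-inhibitor equilibration. Fluorescence (405 ex/510 em) under linear conditions; IC50 from four-parameter fit, converted to Ki by Cheng-Prusoff.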

Chain of human Factor XIa (P03951 388-625): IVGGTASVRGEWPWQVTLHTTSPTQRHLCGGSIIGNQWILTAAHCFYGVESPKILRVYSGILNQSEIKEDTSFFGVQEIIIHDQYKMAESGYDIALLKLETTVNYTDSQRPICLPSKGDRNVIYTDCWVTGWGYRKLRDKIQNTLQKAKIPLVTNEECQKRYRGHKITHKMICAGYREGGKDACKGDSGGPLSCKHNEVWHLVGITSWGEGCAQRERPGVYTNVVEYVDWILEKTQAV
Chain of human Factor XIa (P03951 19-387 partner): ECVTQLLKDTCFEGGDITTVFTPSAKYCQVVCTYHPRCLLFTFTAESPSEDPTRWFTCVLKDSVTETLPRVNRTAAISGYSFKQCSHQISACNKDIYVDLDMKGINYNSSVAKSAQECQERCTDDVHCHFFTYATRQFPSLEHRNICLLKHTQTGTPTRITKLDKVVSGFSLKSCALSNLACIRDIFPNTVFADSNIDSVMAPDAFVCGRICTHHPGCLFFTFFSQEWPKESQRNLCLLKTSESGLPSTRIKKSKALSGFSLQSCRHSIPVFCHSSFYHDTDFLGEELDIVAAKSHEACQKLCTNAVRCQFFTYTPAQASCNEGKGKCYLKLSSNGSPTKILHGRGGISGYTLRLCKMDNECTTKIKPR
Chain of Human plasma kallikrein (P03952 391-638): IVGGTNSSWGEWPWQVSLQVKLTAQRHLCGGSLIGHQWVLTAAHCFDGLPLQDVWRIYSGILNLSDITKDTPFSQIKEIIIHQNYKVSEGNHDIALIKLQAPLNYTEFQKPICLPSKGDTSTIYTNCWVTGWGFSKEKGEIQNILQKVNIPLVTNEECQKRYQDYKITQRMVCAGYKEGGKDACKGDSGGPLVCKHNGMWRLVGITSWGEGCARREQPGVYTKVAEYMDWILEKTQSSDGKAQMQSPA
Chain of Human plasma kallikrein (P03952 20-390 partner): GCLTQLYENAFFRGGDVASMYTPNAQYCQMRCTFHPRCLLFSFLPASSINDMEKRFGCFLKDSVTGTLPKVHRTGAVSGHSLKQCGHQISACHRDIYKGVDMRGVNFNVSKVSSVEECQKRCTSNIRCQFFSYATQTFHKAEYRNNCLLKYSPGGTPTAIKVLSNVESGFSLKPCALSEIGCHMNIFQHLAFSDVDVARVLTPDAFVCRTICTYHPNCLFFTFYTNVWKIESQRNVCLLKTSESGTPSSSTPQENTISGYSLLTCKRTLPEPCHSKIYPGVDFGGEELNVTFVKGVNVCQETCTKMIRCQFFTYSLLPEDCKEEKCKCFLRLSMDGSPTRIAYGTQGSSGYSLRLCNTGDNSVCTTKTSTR

| Compound | Ki (human Factor XIa) [nM] | Ki (Human plasma kallikrein) [nM] |
| --- | --- | --- |
| O=C1Nc2ccc(Cl)c(F)c2[C@@]2(CCCN(C(=O)[C@H](CC3CC3)NC(=O)c3ccc4[nH]nc(O)c4c3)C2)O1 [Example 214] | 0.7 | 1.4 |
| O=C1Nc2ccc(Cl)c(F)c2[C@@]2(CCCN(C(=O)[C@H](CC3CC3)NC(=O)c3ccc4c(O)n[nH]c4c3)C2)O1 [Example 215] | 13.8 | 2.6 |
| Nc1noc2cc(C(=O)N[C@@H](Cc3ccccc3)C(=O)N3CC[C@@]4(C3)OC(=O)Nc3ccc(Cl)cc34)ccc12 [Example 217] | 2.3 | 3.2 |
| Nc1n[nH]c2cc(C(=O)N[C@@H](Cc3ccccc3)C(=O)N3CCCC4(C3)OC(=O)Nc3ccc(Cl)c(F)c34)ccc12 (stereo partly drawn) [Example 225] | 0.4 | 0.95 |
| COC(=O)n1nc(N)c2ccc(C(=O)N[C@@H](Cc3ccccc3)C(=O)N3CC[C@@]4(C3)OC(=O)Nc3ccc(Cl)cc34)cc21 [Example 226, Methyl 3-amino-6-(((S)-1-((R)-6-chloro-2-oxo-1,2-dihydrospiro[benzo[d][1,3]oxazine-4,3′-pyrrolidin]-1′-yl)-1-oxo-3-phenylpropan-2-yl)carbamoyl)-1H-indazole-1-carboxylate] | 18.1 | 23.2 |
| COC(=O)Nc1n[nH]c2cc(C(=O)N[C@@H](Cc3ccccc3)C(=O)N3CC[C@@]4(C3)OC(=O)Nc3ccc(Cl)cc34)ccc12 [Example 227, methyl (6-(((S)-1-((R)-6-chloro-2-oxo-1,2-dihydrospiro[benzo[d][1,3]oxazine-4,3′-pyrrolidin]-1′-yl)-1-oxo-3-phenylpropan-2-yl)carbamoyl)-1H-indazol-3-yl)carbamate] | 9 | 5 |
| COCC(=O)Nc1ccc(C(=O)N[C@@H](Cc2ccccc2)C(=O)N2CCC[C@@]3(C2)OC(=O)Nc2ccc(Cl)c(F)c23)cc1 [Example 230, N-((S)-1-((R)-6-chloro-5-fluoro-2-oxo-1,2-dihydrospiro[benzo[d][1,3]oxazine-4,3′-piperidin]-1′-yl)-1-oxo-3-phenylpropan-2-yl)-4-(2-methoxyacetamido)benzamide] | 17.3 | 2.72 |
| CC(C)OC(=O)Nc1ccc(C(=O)N[C@@H](Cc2ccccc2)C(=O)N2CCC[C@@]3(C2)OC(=O)Nc2ccc(Cl)c(F)c23)cc1 [Example 231, isopropyl (4-(((S)-1-((R)-6-chloro-5-fluoro-2-oxo-1,2-dihydrospiro[benzo[d][1,3]oxazine-4,3′-piperidin]-1′-yl)-1-oxo-3-phenylpropan-2-yl)carbamoyl)phenyl)carbamate] | 35.1 | 4.74 |
| O=C1Nc2ccc(Cl)c(F)c2[C@@]2(CCCN(C(=O)[C@H](Cc3ccccc3)NC(=O)c3ccc(B(O)O)s3)C2)O1 [Example 233] | 7.88 | 2.44 |
| O=C1Nc2ccc(Cl)c(F)c2[C@@]2(CCCN(C(=O)[C@H](CC3CC3)NC(=O)c3ccc(-c4ncc[nH]4)s3)C2)O1 [Example 237] | 5.85 | 0.96 |
| CC(=O)Nc1ccc(C(=O)N[C@@H](Cc2ccccc2)C(=O)N2CCC[C@@]3(C2)OC(=O)Nc2ccc(Cl)c(F)c23)cc1 [Example 240, 4-acetamido-N-((S)-1-((R)-6-chloro-5-fluoro-2-oxo-1,2-dihydrospiro[benzo[d][1,3]oxazine-4,3′-piperidin]-1′-yl)-1-oxo-3-phenylpropan-2-yl)benzamide] | 4.28 | 1.49 |
| COC(=O)NCc1ccc(C(=O)N[C@@H](Cc2ccccc2)C(=O)N2CCC[C@@]3(C2)OC(=O)Nc2ccc(Cl)c(F)c23)cc1 [Example 241, methyl (4-(((S)-1-((R)-6-chloro-5-fluoro-2-oxo-1,2-dihydrospiro[benzo[d][1,3]oxazine-4,3′-piperidin]-1′-yl)-1-oxo-3-phenylpropan-2-yl)carbamoyl)benzyl)carbamate] | 53.9 | 2.13 |
| Cc1[nH]c2ccc(C(=O)N[C@@H](Cc3ccccc3)C(=O)N3CCC[C@@]4(C3)OC(=O)Nc3ccc(Cl)cc34)cc2c1C(=O)O [Example 249] | 2.02 | < 1.36 |
| Nc1n[nH]c2cc(C(=O)N[C@@H](CC3CC3)C(=O)N3CCC[C@@]4(C3)OC(=O)Nc3ccc(Cl)c(F)c34)ccc12 [Example 254] | 2.11 | 0.83 |
| O=C1Nc2ccc(Cl)c(F)c2[C@@]2(CCCN(C(=O)[C@H](Cc3ccccc3)NC(=O)c3ccc4[nH]nc(C(F)(F)F)c4c3)C2)O1 [Example 256, N—((S)-1-((R)-6-chloro-5-fluoro-2-oxo-1,2-dihydrospiro[benzo[d][1,3]oxazine-4,3′-piperidin]-1′-yl)-1-oxo-3-phenylpropan-2-yl)-3-(trifluoromethyl)-1H-indazole-5-carboxamide] | > 875 | 31 |

More lines, now with the values ahead:

| Ki (human Factor XIa) [nM] | Ki (Human plasma kallikrein) [nM] | Compound |
| --- | --- | --- |
| 0.11 | 0.33 | O=C1Nc2ccc(Cl)c(F)c2[C@@]2(CCCN(C(=O)[C@H](Cc3ccccc3)NC(=O)c3ccc4[nH]c(=O)cc(O)c4c3)C2)O1 [Example 209] |
| 10.4 | 0.54 | O=C1Nc2ccc(Cl)c(F)c2[C@@]2(CCCN(C(=O)[C@H](CC3CC3)NC(=O)c3ccc4[nH]c(=O)[nH]c4c3)C2)O1 [Example 213] |
| 37.6 | 1.7 | O=C1Nc2ccc(Cl)c(F)c2[C@@]2(CCCN(C(=O)[C@H](CC3CC3)NC(=O)c3cc4cc(O)ccc4[nH]3)C2)O1 [Example 216] |
| 17.1 | 19.3 | O=C1Nc2ccc(Cl)cc2[C@@]2(CCN(C(=O)[C@H](Cc3ccccc3)NC(=O)c3ccc4[nH]c(=O)[nH]c(=O)c4c3)C2)O1 [Example 228] |
| 16.9 | 3.03 | COC(=O)Nc1cnc(C(=O)N[C@@H](Cc2ccccc2)C(=O)N2CCC[C@@]3(C2)OC(=O)Nc2ccc(Cl)c(F)c23)nc1 [Example 234] |
| 1.26 | 0.87 | O=C1Nc2ccc(Cl)c(F)c2[C@@]2(CCCN(C(=O)[C@H](Cc3ccccc3)NC(=O)c3ccc(-c4ncc[nH]4)s3)C2)O1 [Example 235] |
| 0.97 | 0.65 | NC(=O)c1ccc(C(=O)N[C@@H](Cc2ccccc2)C(=O)N2CCC[C@@]3(C2)OC(=O)Nc2ccc(Cl)c(F)c23)s1 [Example 245] |
| 41.9 | 13.3 | Cc1cc2cc(C(=O)N[C@@H](Cc3ccccc3)C(=O)N3CCC[C@@]4(C3)OC(=O)Nc3ccc(Cl)cc34)ccc2[nH]1 [Example 250] |
| 5.72 | < 1.36 | O=C1CCc2cc(C(=O)N[C@@H](CC3CC3)C(=O)N3CCC[C@@]4(C3)OC(=O)Nc3ccc(Cl)c(F)c34)ccc2N1 [Example 251] |
| 4 | 0.45 | O=C1Nc2ccc(Cl)c(F)c2[C@@]2(CCCN(C(=O)[C@H](CC3CC3)NC(=O)c3ccc4[nH]c(=O)ccc4c3)C2)O1 [Example 255] |
| 0.78 | 0.57 | O=C1Nc2ccc(Cl)c(F)c2[C@@]2(CCCN(C(=O)[C@H](Cc3ccccc3)NC(=O)c3ccc4[nH]c(=O)ccc4c3)C2)O1 [Example 257] |
| 1.73 | 4.08 | Nc1n[nH]c2cc(C(=O)N[C@@H](Cc3ccncc3)C(=O)N3CC[C@@]4(C3)OC(=O)Nc3ccc(Cl)cc34)ccc12 [Example 258] |
| 77.9 | 130 | Nc1cc(C(=O)N[C@@H](Cc2ccccc2)C(=O)N2CCC3(C2)OC(=O)Nc2ccc(Cl)cc23)cc2[nH]cnc12 (stereo partly drawn) [Example 260] |
| 3.82 | 1.22 | Nc1n[nH]c2cc(C(=O)N[C@@H](CC(=O)N3CCC3)C(=O)N3CCC[C@@]4(C3)OC(=O)Nc3ccc(Cl)cc34)ccc12 [Example 266] |
| 0.7 | 0.29 | O=C1Nc2ccc(Cl)c(F)c2[C@@]2(CCCN(C(=O)[C@H](Cc3ccc(F)cc3)NC(=O)c3cc(F)c(C(=O)C(=O)O)s3)C2)O1 [Example 267, 2-(5-(((S)-1-((R)-6-chloro-5-fluoro-2-oxo-1,2-dihydrospiro[benzo[d][1,3]oxazine-4,3′-piperidin]-1′-yl)-3-(4-fluorophenyl)-1-oxopropan-2-yl)carbamoyl)-3-fluorothiophen-2-yl)-2-oxoacetic acid] |
| 0.85 | 0.9 | Nc1n[nH]c2cc(C(=O)N[C@@H](CC(=O)N3CCCC3)C(=O)N3CCC[C@@]4(C3)OC(=O)Nc3ccc(Cl)cc34)ccc12 [Example 268] |
| 5 | 3 | CC(C)(O)C[C@H](NC(=O)c1ccc2c(N)n[nH]c2c1)C(=O)N1CCC[C@@]2(C1)OC(=O)Nc1ccc(Cl)cc12 [Example 269] |
| 3.22 | 0.65 | O=C(Nc1ccc(C(=O)N[C@@H](Cc2ccc(F)cc2)C(=O)N2CCC[C@@]3(C2)OC(=O)Nc2ccc(Cl)c(F)c23)cc1)OCCc1nnn[nH]1 [Example 274, 2-(1H-tetrazol-5-yl)ethyl (4-(((S)-1-((R)-6-chloro-5-fluoro-2-oxo-1,2-dihydrospiro[benzo[d][1,3]oxazine-4,3′-piperidin]-1′-yl)-3-(4-fluorophenyl)-1-oxopropan-2-yl)carbamoyl)phenyl)carbamate] |
